From publication PMC6155811, “Effect of Phenolic Compounds from Elderflowers on Glucose- and Fatty Acid Uptake in Human Myotubes and HepG2-Cells” (Molecules : A Journal of Synthetic Chemistry and Natural …, 2017)

How the values were obtained:
[1] = test system: human skeletal muscle cells; test: Glucose uptake in human myotubes ([14C(U)]-glucose); format: cell-based; settings: 10 µM, 2 days, vs 0.1% DMSO control; mean ± SEM
Procedure: Figure 2 Effects of elderflower extracts, constituents and metabolites on glucose uptake in human myotubes. Myotubes were treated with (A) 12.5, 25 and 50 µg/mL of different crude extracts; (B,C) 0.1, 1 and 10 µM of elderflower phenolic compounds and metabolites for 2 days. Thereafter, the cells were exposed to [^14C(U)]-glucose (1 μCi/mL, 100 μM) for 4 h as described in the Materials and Methods section. 22-S-hydroxycholesterol (22-SHC) (10 μM) was used as positive control. The figures show [^14C(U)]-glucose uptake given as means ± standard error of the mean (SEM) (n = 3) from separate experiments. * p < 0.05 vs. control (0.1% dimethyl sulfoxide (DMSO)).
(§1) Satellite cells were isolated from the Musculus obliquus internus abdominis of four healthy donors, age 34.8 (±19) years, body mass index 22.9 (±2.7) kg/m^2, fasting glucose 4.9 (±0.6) mM, insulin, plasma lipids and blood pressure within normal range and no family history of diabetes. The muscle biopsies were obtained with informed consent and approval by the National Committee for Research Ethics (Oslo, Norway). The cells were cultured on 96-well CellBIND microplates DMEM-Glutamax (5.5 mM glucose), 2% fetal bovine serum, 2% Ultroser G, penicillin (100 units/mL), streptomycin (100 μg/mL) and amphotericin B (1.25 μg/mL) for proliferation. At 70%–80% confluence, the growth medium was replaced by DMEM-Glutamax (5.5 mM glucose) supplemented with 2% fetal bovine serum, penicillin (100 units/mL), streptomycin (100 μg/mL), amphotericin B (1.25 μg/mL) and insulin (25 pM), to induce differentiation. The cells were cultured in humidified 5% CO2 atmosphere at 37 °C, and the medium was changed every 2–3 days. Experiments were performed after 7 days of differentiation. 22-S-hydroxycholesterol (22-SHC) (10 µM) was used as positive control in the glucose uptake assay. The positive control used in the oleic acid assay is the synthetic liver X receptor (LXR) agonist T0901317 (10 µm).
(§2) Cells were exposed to test samples solved in 0.1% DMSO that were added directly to the medium for 2 days for myotubes and 24 h for HepG2 cells. Thereafter, cells were exposed to [^14C(U)]-glucose (1 μCi/mL, 100 μM) or [^14C]-oleic acid (37 kBq, 100 µM) for 4 h. A 96-well UniFilter-96 GF7B microplate (Perkin Elmer, Waltham, MA, USA) was mounted on top of the CellBIND plate (Corning Life-Sciences (Schiphol-Rijk, The Netherlands) and CO2 production was measured. After incubation the cells were washed twice with ice-cold phosphate buffered saline (PBS), lysed in 0.1 M NaOH, and radioactivity measured by liquid scintillation counting. The protein content of each sample was determined and glucose uptake was calculated using protein levels for standardization.

HepG2-cells [2] = test: Glucose uptake in HepG2-cells ([14C(U)]-glucose); format: cell-based, human; settings: 24 h, vs 0.1% DMSO control
Procedure: The human hepatoblastoma cell line HepG2 (HB-8065, ATCC, Manassas, VA, USA) was cultured in DMEM-Glutamax (5.5 mM glucose) supplemented with 10% fetal bovine serum, streptomycin (100 μg/mL) and penicillin (100 units/mL) at 37 °C in 5% CO2.
as §2

[3] = test system: human skeletal muscle cells; test: Oleic acid uptake in human myotubes ([14C]-oleic acid); format: cell-based; settings: 10 µM (highest concentration tested), 2 days, vs 0.1% DMSO control
Procedure: Figure 3 Effects of elderflower extracts, constituents and metabolites on oleic acid uptake in human myotubes. Myotubes were treated with (A) 12.5, 25 and 50 µg/mL of different crude extracts; (B,C) 0.1, 1 and 10 µM of elderflower phenolic compounds and metabolites for 2 days. Thereafter, the cells were exposed to [^14C]-oleic acid (37 kBq, 100 µM) for 4 h as described in Materials and Methods. A synthetic liver X receptor (LXR) agonist T0901317 (10 μM) was used as positive control. The figures show [^14C]-oleic acid uptake given as means ± SEM (n = 3) from separate experiments. * p < 0.05 vs. control (0.1% DMSO).
as §1, §2

[4] = target: T1, Porcine pancreatic α-amylase (Sus scrofa, UniProt P00690); test: α-Amylase inhibitory activity; format: biochemical; settings: phenolic compounds and metabolites; IC50 ± SD
T1 construct: purchased Sigma-Aldrich Chemie GmbH
T1 sequence (P00690 16-511): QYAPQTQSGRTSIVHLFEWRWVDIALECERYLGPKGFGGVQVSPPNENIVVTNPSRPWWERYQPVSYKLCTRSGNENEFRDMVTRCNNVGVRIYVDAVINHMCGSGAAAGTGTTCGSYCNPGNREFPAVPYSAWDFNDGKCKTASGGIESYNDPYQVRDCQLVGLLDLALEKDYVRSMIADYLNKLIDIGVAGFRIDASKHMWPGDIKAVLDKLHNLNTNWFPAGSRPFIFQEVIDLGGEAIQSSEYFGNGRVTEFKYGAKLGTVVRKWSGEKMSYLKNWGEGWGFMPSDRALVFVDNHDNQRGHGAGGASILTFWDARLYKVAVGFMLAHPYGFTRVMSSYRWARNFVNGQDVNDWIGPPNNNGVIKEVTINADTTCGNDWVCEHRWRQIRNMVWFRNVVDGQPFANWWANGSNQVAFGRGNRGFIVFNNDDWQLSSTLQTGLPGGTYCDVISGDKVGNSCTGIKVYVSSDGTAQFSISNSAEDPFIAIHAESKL
Procedure: The α-amylase assay was performed as described by Gella, et al.. Porcine pancreatic α-amylase (EC 3.2.1.1) was purchased from Sigma-Aldrich Chemie GmbH.

DPPH radical scavenging = settings: IC50 ± SD; for IC50: phenolic compounds and metabolites
Procedure: Scavenging activity towards the DPPH radical was carried out as previously described. Test substances were dissolved in DMSO or water. Values were corrected for absorbance of the test substances.

[5] = target: T2, 15-lipoxygenase (15-LO) from soybeans (Glycine max, UniProt P08170); test: Inhibition of 15-lipoxygenase; format: biochemical, soybean; settings: phenolic compounds and metabolites; IC50 ± SD; read-out: 15-LO IC50
T2 construct: 15-lipoxygenase (15-LO) from soybeans; purchased Sigma-Aldrich (St. Louis, MO, USA); host or cells: soybeans
T2 sequence (P08170 1-839): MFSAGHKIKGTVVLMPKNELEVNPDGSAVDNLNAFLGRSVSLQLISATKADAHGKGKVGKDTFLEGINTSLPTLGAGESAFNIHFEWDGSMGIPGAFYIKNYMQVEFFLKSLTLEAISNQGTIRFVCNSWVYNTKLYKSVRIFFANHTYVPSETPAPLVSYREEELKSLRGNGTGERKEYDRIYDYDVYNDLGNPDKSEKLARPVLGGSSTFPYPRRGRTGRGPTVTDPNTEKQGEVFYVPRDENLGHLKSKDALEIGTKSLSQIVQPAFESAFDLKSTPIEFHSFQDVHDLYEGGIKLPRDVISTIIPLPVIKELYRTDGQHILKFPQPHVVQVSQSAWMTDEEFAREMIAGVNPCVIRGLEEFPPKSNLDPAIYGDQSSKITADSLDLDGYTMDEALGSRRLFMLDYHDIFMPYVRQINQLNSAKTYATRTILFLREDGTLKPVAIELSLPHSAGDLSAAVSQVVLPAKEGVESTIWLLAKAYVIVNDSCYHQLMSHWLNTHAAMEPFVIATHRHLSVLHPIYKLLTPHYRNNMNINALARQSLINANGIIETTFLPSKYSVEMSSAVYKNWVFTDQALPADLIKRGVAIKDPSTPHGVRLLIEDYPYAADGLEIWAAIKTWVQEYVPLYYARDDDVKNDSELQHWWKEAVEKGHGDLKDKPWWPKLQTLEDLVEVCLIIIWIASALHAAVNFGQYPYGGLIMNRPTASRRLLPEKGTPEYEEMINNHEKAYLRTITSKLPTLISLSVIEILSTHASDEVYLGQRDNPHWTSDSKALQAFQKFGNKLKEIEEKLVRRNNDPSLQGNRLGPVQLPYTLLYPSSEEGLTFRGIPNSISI
Procedure: Test substances were dissolved in DMSO or water, and the assay was carried out as previously described.

HepG2-cells [6] = test: Oleic acid uptake in HepG2-cells ([14C]-oleic acid); format: cell-based, human; settings: highest concentration tested
Procedure: as §2, with “Thereafter, cells were exposed to [^14C(U)]-glucose (1 μCi/mL, 100 μM) or [^14C]-oleic acid (37 kBq, 100 µM) for 4 h.” left out, “The protein content of each sample was determined and glucose uptake was calculated using protein levels for standardization.” left out

[7] = target: T3, xanthine oxidase from bovine milk (Bos taurus, UniProt P80457); test: Inhibition of xanthine oxidase; format: biochemical; settings: phenolic compounds and metabolites; IC50 ± SD; read-out: XO IC50
T3 construct: xanthine oxidase from bovine milk; purchased Sigma-Aldrich (St. Louis, MO, USA); host or cells: bovine milk
T3 sequence (P80457 whole entry): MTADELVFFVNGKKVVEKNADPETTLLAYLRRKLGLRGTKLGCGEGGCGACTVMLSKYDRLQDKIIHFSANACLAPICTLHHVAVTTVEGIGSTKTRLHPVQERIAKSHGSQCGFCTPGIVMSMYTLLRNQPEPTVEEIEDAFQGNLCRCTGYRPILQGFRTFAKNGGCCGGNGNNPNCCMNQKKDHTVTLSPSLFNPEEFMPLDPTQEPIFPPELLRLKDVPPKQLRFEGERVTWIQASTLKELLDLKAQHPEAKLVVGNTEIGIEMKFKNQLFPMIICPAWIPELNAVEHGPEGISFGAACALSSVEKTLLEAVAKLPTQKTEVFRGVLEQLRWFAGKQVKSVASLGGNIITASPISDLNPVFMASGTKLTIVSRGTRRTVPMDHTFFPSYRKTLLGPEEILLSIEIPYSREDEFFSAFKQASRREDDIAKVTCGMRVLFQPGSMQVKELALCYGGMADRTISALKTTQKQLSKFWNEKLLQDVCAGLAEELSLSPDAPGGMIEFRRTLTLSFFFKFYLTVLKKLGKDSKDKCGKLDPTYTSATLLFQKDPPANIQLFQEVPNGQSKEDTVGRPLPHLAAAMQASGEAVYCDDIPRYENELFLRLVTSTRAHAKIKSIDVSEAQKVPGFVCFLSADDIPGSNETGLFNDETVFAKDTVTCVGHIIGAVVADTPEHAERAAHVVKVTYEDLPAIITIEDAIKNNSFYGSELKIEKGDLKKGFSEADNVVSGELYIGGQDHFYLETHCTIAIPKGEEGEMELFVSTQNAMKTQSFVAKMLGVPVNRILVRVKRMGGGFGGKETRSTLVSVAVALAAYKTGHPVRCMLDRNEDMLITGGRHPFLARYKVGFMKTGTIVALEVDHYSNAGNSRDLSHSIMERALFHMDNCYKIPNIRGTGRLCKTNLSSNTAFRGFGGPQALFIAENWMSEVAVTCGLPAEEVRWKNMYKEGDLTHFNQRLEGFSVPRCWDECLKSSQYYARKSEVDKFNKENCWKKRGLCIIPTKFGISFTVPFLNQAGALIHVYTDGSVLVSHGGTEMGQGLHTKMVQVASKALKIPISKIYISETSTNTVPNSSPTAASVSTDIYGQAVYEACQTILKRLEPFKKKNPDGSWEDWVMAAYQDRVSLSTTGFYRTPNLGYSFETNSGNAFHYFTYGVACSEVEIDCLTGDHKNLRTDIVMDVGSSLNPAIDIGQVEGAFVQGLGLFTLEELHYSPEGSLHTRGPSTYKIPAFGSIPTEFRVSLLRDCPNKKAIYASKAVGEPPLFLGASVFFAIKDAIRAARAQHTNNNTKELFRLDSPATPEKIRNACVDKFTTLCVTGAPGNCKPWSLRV
Procedure: The XO inhibitory activity with hypoxanthine as the substrate was carried out previously described. Test substances were dissolved in DMSO or water.

Row | Compound | increase in glucose uptake [1] | maximal increase in glucose uptake (HepG2-cells [2]) | increase in oleic acid uptake [3] | IC50 [4] | IC50 (DPPH radical scavenging) | IC50 [5] | DPPH IC50 (DPPH radical scavenging; crude extracts) | enhancement of oleic acid uptake (HepG2-cells [6]) | IC50 [7]
1 | O=c1c(O)c(-c2ccc(O)cc2)oc2cc(O)cc(O)c12 [Kaempferol] | 39.1% ± 5.8% | 45.2% ± 2.6% | 25.0% ± 3.0% | 3.6 ± 1.1 µM | 10.6 ± 3.9 µM | 93.7 ± 3.7 µM | – | – | –
2 | O=c1c(O)c(-c2ccc(O)c(O)c2)oc2cc(O)cc(O)c12 [Quercetin] | 37.1% ± 4.6% | 41.1% ± 3.2% | – | – | 9.3 ± 1.5 µM | – | 2.8 ± 0.3 µg/mL | – | –
3 | O=C(/C=C/c1ccc(O)c(O)c1)O[C@@H]1C[C@](O)(C(=O)O)C[C@@H](O)[C@H]1O [Chlorogenic acid] | – | – | 17.3% ± 2.5% | 9.1 ± 1.1 µM | – | 106 ± 2.3 µM | – | 25.6% ± 4.6% | 24.2 ± 5.3 µM
